Literature values as cited in patent US11951146B2, “Stimulation of NK cell activity by using a combination of broccoli, Nigella Sativa, Green Tea, and pterostilbene alone and together with metformin” (Therapeutic Solutions International, Inc., priority 2020, dated 2024).
Read-outs that look alike come from different tables or passages of the source.

Assays:
LPS-induced ARDS [1] = test system: LPS-induced ARDS
[2] = test system: primary peritoneal macrophages
[3] = test system: LPS-challenged macrophages; details: pre-incubated 6 h, then LPS 24 h
sepsis = details: for concentration of IL-la: controls 1187.0±278.64
[4] = test system: lipopolysaccharide-induced inflammatory reactions
[5] = test system: myocardial ischemia and reperfusion; details: EGCG 10 mg/kg intravenously then 10 mg/kg/h infusion
[6] = test system: lethal endotoxemia / lethal sepsis
polymicrobial sepsis [7] = details: 10 mg/kg intraperitoneally at 1 and 6 h after CL2P and every 12 h
experimental colitis = details: 50 and 100 mg/kg/day EGCG
[8] = test system: lipopolysaccharide-activated macrophages
LPS-induced ARDS [9] = details: EGCG 10 mg/kg ip
polymicrobial sepsis [10] = details: 10 mg/kg intraperitoneally, 72 h after CL2P
[11] = rat, in vivo
[12] = test system: interleukin-1, interleukin-6, interleukin-8, TNF-alpha

**Q.** For C[S+]([O-])CCCCN=C=S (stereo not shown) [sulforaphane, 1-isothiocyanato-4-(methylsulfinyl)-butane], which “Nrf2/antioxidant response element (ARE) pathway” value (LPS-induced ARDS [1]; pre-treatment) is on record?
**A.** The value was “activated”.

**Q.** And the “LDH activity, wet-to-dry ratio of the lungs, serum IL-6 and TNF-α, nuclear factor-κB protein expression” value (LPS-induced ARDS [1]; sulforaphane 50 mg/kg, LPS 5 mg/kg 3 days later)?
**A.** The value was “significantly decreased”.

**Q.** What about the “PGE2 production, COX-2 and MMP-9 protein expression, iNOS activity” value (LPS-induced ARDS [1]; sulforaphane 50 mg/kg, LPS-induced ALI) of the same molecule?
**A.** The value was “significantly inhibited”.

**Q.** And the HO-1 expression ([2]; LPS-stimulated Nrf2 (+/+) primary peritoneal macrophages)?
**A.** The HO-1 expression was “significantly augmented”.

**Q.** What about the “LPS-stimulated mRNA expression, protein expression and production of TNF-alpha, IL-1beta, COX-2 and iNOS” value ([2]; Nrf2 (+/+) primary peritoneal macrophages, pretreatment) of the same molecule?
**A.** The value was “potently inhibited”.

**Q.** What about the anti-inflammatory effect ([2]; Nrf2 (−/−) primary peritoneal macrophages) of the same molecule?
**A.** The anti-inflammatory effect was “attenuated”.

**Q.** What about the “expression of NO and cytokines” value [3] of the same molecule?
**A.** The value was “prevent the expression”.

**Q.** What does the source list for CC1=CC(=O)C(C(C)C)=CC1=O [thymoquinone]?
**A.** concentration of IL-la (sepsis; 0.75 mg/kg thymoquinone dose): 310.8 ± 70.93 pg/mL; IL-1β levels (sepsis; 0.75 mg/kg thymoquinone, controls 5505.2±333.96): 2885.0 ± 553.98 pg/mL; concentration of IL-la (sepsis; 1 mg/kg group): 428.3 ± 71.32 pg/mL; levels of TNF-α and IL-2 (sepsis; P values=0.1817 and 0.0851): relatively lower levels; reduction of mortality (sepsis; mice, sepsis): 80-90%; renal and hepatic biomarker profiles (sepsis; mice, sepsis): improved; lipopolysaccharide-induced inflammatory reactions [4]: suppressed effectively; concentration of nitric oxide ([4]; lipopolysaccharide-induced): reduced significantly

**Q.** With epigallocatechin-3-gallate [EGCG] as the molecule, how does the “myocardial damage and myeloperoxidase activity” value [5] read?
**A.** The value was “reduced”.

**Q.** What about the “plasma IL-6 and creatine phosphokinase levels” value [5] of the same molecule?
**A.** Its value is “decreased”.

**Q.** And the “rescue from lethal sepsis” value ([6]; first dose 24 hours after cecal ligation and puncture)?
**A.** Its value is “rescued”.

**Q.** What about the “protection against lethal endotoxemia” value ([6]; intraperitoneal) of the same molecule?
**A.** Its value is “protected”.

**Q.** And the “hypotension (mean arterial blood pressure)” value (polymicrobial sepsis [7])?
**A.** Its value is “significantly improved”.

**Q.** What about the “HIF-la and STAT3 protein expression in the colon” value (experimental colitis) of the same molecule?
**A.** Its value is “decreasing”.

**Q.** And the “plasma levels of IL-1β and TGF-β1” value (experimental colitis)?
**A.** The value was “increasing”.

**Q.** What about the “release of IL-6 and IL-17” value (experimental colitis) of the same molecule?
**A.** Its value is “reduce the release”.

**Q.** And the NO production ([8]; cells cotreated with EGCG and LPS)?
**A.** Its NO production is “Inhibition”.

**Q.** What about the “activation of nuclear factor-kappaB” value ([8]; electrophoretic mobility shift assay) of the same molecule?
**A.** Its value is “blocked the activation”.

**Q.** And the “expression of IκB-α” value (LPS-induced ARDS [9])?
**A.** Its value is “increased the expression”.

**Q.** And the “expression of TLR-4, MyD88, TRIF and p-p65 in the lung tissue” value (LPS-induced ARDS [9])?
**A.** Its value is “alleviated the expression”.

**Q.** What about the “expression of TNF-α, IL-1β and IL-6 in lung, serum and bronchoalveolar lavage fluid” value (LPS-induced ARDS [9]) of the same molecule?
**A.** Its value is “significantly decreased”.

**Q.** And the “expression of p65” value (LPS-induced ARDS [9])?
**A.** The value was “had no influence”.

**Q.** And the survival (polymicrobial sepsis [10])?
**A.** Its survival is “significantly improved”.

**Q.** And the “TNF-α-induced nuclear factor-κB (NF-κB) activity” value (macrophage foam cells)?
**A.** The value was “inhibition”.

**Q.** And the “TNF-α-induced downregulation of ABCA1 and decrease in cholesterol efflux to apoA1” value (macrophage foam cells; pretreatment with EGCG)?
**A.** The value was “attenuated”.

**Q.** What does the source list for “trans-3,5-dimethoxy-4-hydroxystilbene [pterostilbene]”?
**A.** bioavailability [11]: 80%; inhibition of interleukin-1, interleukin-6, interleukin-8 and TNF-alpha [12]: inhibition
